# Assays:
# blood plasma [1] = assay: Test 4a: coagulation as a function of the volume concentration of calcium (absorbance 450 nm); format: biochemical, human; conditions: without surfaces; calcium in plasma between 2.5 and 45.6 mM
# Protocol: Blood plasma was prepared by extracting blood from three healthy patients. A technique similar to the one described in patent EP1066838B1 was applied to obtain a Plasma Rich in Growth Factors (PRGF): the blood was centrifuged for eight minutes at 460 G; the column of plasma was then separated from the red globules and white globules by manual pipetting (unlike the protocol described in EP1066838B1, in this case, due to the criteria of volume for carrying out the experiments, the entire plasma column was selected, not merely the part richer in platelets). Both the red globules and the white globules were discarded.
# For the purpose of determining the ranges of concentration of calcium ions in plasma at which coagulation is initiated, 10 μl of CaCl2.EtOH were placed in concentrations of between 28 and 2000 mM in the bottom of a multi-well plate comprising 96 wells. […] Absorbance was measured immediately in the manner described hereafter.
# Immediately after the tubes were filled, absorbance (optical density) was measured with a spectrophotometer at a wavelength of 450 nm. […]
# This gradual cross-linking gradually blocks the passage of the reader beam, the absorbance therefore increasing. […] It is at this point that the absorbance (optical density) values are collated so that comparisons can be made between the various samples.
# [2] = ambient temperature; cited from earlier work
# blood plasma [3] = assay: Test 4b: coagulation in the presence of surfaces with or without calcium (titanium tubes, absorbance 450 nm); format: biochemical, human; conditions: surfaces with no calcium; 50 mM NaOH or 0.9 wt. % NaCl treatment, not dried
# Protocol: Blood plasma was prepared by extracting blood from three healthy patients. A technique similar to the one described in patent EP1066838B1 was applied to obtain a Plasma Rich in Growth Factors (PRGF): the blood was centrifuged for eight minutes at 460 G; the column of plasma was then separated from the red globules and white globules by manual pipetting (unlike the protocol described in EP1066838B1, in this case, due to the criteria of volume for carrying out the experiments, the entire plasma column was selected, not merely the part richer in platelets). Both the red globules and the white globules were discarded. First of all, the surfaces were prepared. For the study of the coagulation, in which the excess surface calcium was to be measured, hollow tubes were used to enable the reader beam to move longitudinally. […] They were ultrasound-washed with Triton X-100, acetone and ethanol, for 20 minutes. Eight tubes were used per concentration. The solutions were prepared. […] Immediately after the tubes were filled, absorbance (optical density) was measured with a spectrophotometer at a wavelength of 450 nm. […] This gradual cross-linking gradually blocks the passage of the reader beam, the absorbance therefore increasing. […] It is at this point that the absorbance (optical density) values are collated so that comparisons can be made between the various samples.
SMILES,"final degree of coagulation in volume, normalized with respect to the positive control (blood plasma [1])",solubility in water [2],degree of coagulation inside titanium tubes normalized to positive control (blood plasma [3])
"[Ca+2].[Cl-].[Cl-] [CaCl2, calcium chloride]",sometimes even greater than that of the positive control,> 60 g/100 mL,
"[Cl-].[Na+] [NaCl, sodium chloride]",,,lack of coagulation is evident
"[Na+].[OH-] [NaOH, sodium hydroxide]",,,lack of coagulation is evident
